The text below walks through data of US8178089B2, “Neuronal progenitors from feeder-free human embryonic stem cell culture” (The University of Georgia Research Foundation, Inc, priority 2004, dated 2012).

For one experiment, the system named is OLIG2 expression. Kind of experiment: OLIG2 gene expression by real time RT-PCR in NEP. Format: cell-based. The conditions noted are these: human NEP, FIG. 2A. An excerpt: The motor neuron progenitor gene, OLIG2, is expressed early in motor neuron induction. Novitch, et al., Neuron, 31(5), 773-89 (2001). […] Subsequently, we examined expression of the motor neuron gene HLBX9 to investigate the effect of Shh and RA on motor neuron differentiation. Based on the OLIG2 results, bFGF was included at the time of RA or RA plus Shh exposure. The combination of RA and bFGF produced a 2·20 fold increased in HLBX9 expression level, and combining bFGF, Shh and RA increased HLBX9 expression 8·49 fold higher than bFGF alone in human NEP (FIG. 2B).

The test system of experiment [1] is NEP cells. As to the kind of experiment: Proliferation of subcultured NEP cells (nuclei count by flow cytometry, day 14). The experiment is classed as cell-based, human. Particulars: for proliferation rate: long term cultured NEP cells (6 mo). How it is done: (§1) Effect of LIF and bFGF on subcultured NEP cells. Two groups of cultured NEP cells, one less than 1 month (<1 mo) and the other approximately 6 months (6 mo) in NB27 (described in previous section), were dissociated by 0.05% trypsin to obtain a single-cell suspension, and 50,000 cells/cm^2 were plated in one of the subculture media on polyornithine and laminin-coated dishes. Two concentrations of two growth factors (LIF; 0 or 10 ng/ml and bFGF; 0 or 20 ng/ml) in NB27, were applied to cells. Cells were harvested from each group and nuclei were counted by flow cytometry on days 1 and 14. Plating efficiency rate was calculated as the ratio of cells harvested to cells plated on day 1. Proliferation was measured on day 14. For each replicate, counted nuclei from the four treatment groups were added to obtain an overall total. The total cell number within each group was then divided by the overall total cell number and expressed as a percent.

The subject of experiment [2] is NEP cells. As to the kind of experiment: Plating efficiency of subcultured NEP cells (day 1). The experiment is classed as cell-based, human. The conditions noted are these: for plating efficiency versus control: NEP after 6 months in LIF supplemented culture; for effect on plating efficiency / plating efficiency: early NEP cells (1 mo). On the procedure: as §1
Experiment [3] deals with voltage-gated sodium channels. Kind of experiment: Intracellular calcium measurement (Fluo-3AM, FLIPR) in human neuroprogenitor cells. The experiment is classed as cell-based. Particulars: 30 μM veratridine, 96-well plates. On the procedure:
In this experiment, human neuroprogenitor cells were seeded in 96-well plates and incubated with dye loading medium containing 2 μM Fluo-3AM and 0.04% pluronic acid in Locke's buffer. After 45 minutes of incubation, the neuroprogenitor cells were gently washed three times in fresh Locke's buffer. Following the final wash, 150 μl of Locke's buffer was added to each well and the plate was transferred to the FLIPR® incubation chamber (Molecular Devices). […] These cells can therefore be used to determine the effect of an antagonist or agonist on calcium uptake or whether an agent is a likely antagonist or agonist of calcium uptake.
On the technique in general: Calcium assays in cells follow changes in intracellular calcium, usually with a dye or a luminescent sensor.

With “bFGF: basic fibroblast growth factor, growth factor”, the OLIG2 expression change entry in the experiment on OLIG2 expression was “significantly increased”. Further, the “cell proliferation (group cell number as percent of overall total)” value in the experiment on NEP cells [1] (early NEP cells (1 mo), day 14, bFGF 20 ng/ml, control 8.9%) was 38.5%. Also, in the experiment with NEP cells [1], the proliferation rate result was “increased proliferation rate”. Besides, in the experiment with NEP cells [2], the “plating efficiency versus control” value is on record as “higher plating efficiency than the control”, the “effect on plating efficiency” value is on record as “no effect” and the plating efficiency entry is recorded as “about 50%”.

On to `COc1ccc(C(=O)O[C@H]2CC[C@@]3(C)[C@@H]4CC[C@H]5[C@]6(O)C[C@H](O)[C@@]7(O)[C@@H](CN8C[C@@H](C)CC[C@H]8[C@@]7(C)O)[C@]6(O)C[C@@]53O[C@]24O)cc1OC` [veratridine], for which the “elevation of intracellular [Ca2+]” value in experiment [3] is given as ~145 % of control.

Take “LIF: Leukemia Inhibitory Factor, growth factor”: the “effect on proliferation of NEP cells” value with NEP cells [1] (early NEP cells (1 mo), in presence or absence of bFGF) is given as “no effect”. Besides, the proliferation rate entry in the experiment on NEP cells [1] was “increased proliferation rate”. Also, in the experiment on NEP cells [2], the “plating efficiency versus control” value is on record as “higher plating efficiency than the control”, the “effect on plating efficiency” value was “no effect” and the plating efficiency result is “about 50%”.
